Reference: US10654834B2 (Venenum Biodesign, LLC, priority 2016, dated 2020)

Legend:
[1] = Pharmacokinetic profile in mice after oral gavage; format: in vivo, mouse; settings: mouse; fasted male Hilltop mice, 10 mg/kg oral gavage, plasma; read-out: Cmax
Method in brief: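 Plasma exposure (Cmax, AUC) by non-compartmental analysis of LC-MS/MS data, orbital blood taken at 0, 0.25, 0.5, 1, 2 and 4 h, each value averaging three mice. Dosing: 10 mg/kg oral gavage to overnight-fasted male Hilltop mice (8 weeks), vehicle PEG400/CMC/Tween-80.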

Mouse STC-1 cells = test: STC-1 GLP-1 assay (GLP-1 secretion); format: cell-based; settings: Mouse STC-1 cells, GLP-1 secretion, 2 h; read-out: Mouse STC-1 HTRF GLP-1 Activity (EC50)
Description: Compounds of the present invention were evaluated for their ability to induce GLP-1 production in mouse intestinal neuroendocrine tumor cells.
Mouse STC-1 cells were cultured and maintained in high glucose DMEM (Sigma #5796) supplemented with 15% horse serum, 5% Fetal Bovine Serum (FBS), 1%° penicillin/streptomycin, and 2 mM L-alanine L-glutamine (GlutaMax). Two days prior to analysis of GLP-1 secretion cells were harvested using Accutase (Sigma), spun down then resuspended in high glucose DMEM media containing 2 mM L-alanine L-glutamine (GlutaMax), 10% charcoal-dextran stripped FBS, and 50 μg/mL Gentamicin, at a density of 100,000° cells/mL. 100 μL of cell suspension was added to each well of a 96-well Poly-D-Lysine coated culture plate (Sigma; cat #2382493) and was incubated at 37° C. with 5% CO2.
Compounds were initially diluted in 100% DMSO (12-point serial dilution by half logs) in a 96-well plate and then were further diluted 1:500 in Hanks' Balanced Salt Solution (HBSS) containing protease inhibitor cocktail, DPP-IV inhibitor, and 0.1% fatty acid free bovine serum albumin. On the day of the experiment cells were washed once with HBSS. After wash, 100 μL of test compound was added to each well. The plate was incubated at 37° C. with 5% CO2 for 2° h. Supernatants were collected and GLP-1 secretion was measured using the Cisbio™ Active GLP-1 HTRF Assay Kit (CisBio). Briefly, Anti-GLP-1-d2 conjugate and Anti-GLP-1 Terbium Cryptate conjugate stock solutions were prepared as per kit instructions. The two solutions were pre-mixed and 10 μL were transferred to a 384-well low volume plate (Greiner; cat #784075). 10 μL of collected supernatants were added to wells already containing the conjugate solution. The plate was covered and incubated at room temperature overnight. The plate was read on an Envision™ plate reader (PerkinElmer).
In Table 53, EC50 values were obtained from the STC-1 GLP-1 production assay for compounds of the present invention are summarized.

Row | SMILES | Cmax [1] | EC50 (Mouse STC-1 cells)
1 | N#Cc1ccc(CCNC(=O)[C@@H]2CCCN2c2cc(-c3ccc(CO)cc3)cc(C(F)(F)F)n2)cc1 [Compound 204, (S)—N-(4-cyanophenethyl)-1-(4-(4-(hydroxymethyl)phenyl)-6-(trifluoromethyl)pyridin-2-yl)pyrrolidine-2-carboxamide] | 4.4 ng/mL | 100 to 999 nM
2 | N#Cc1ccc(CCNC(=O)[C@@H]2CCCN2c2cc(N3CCC(CCNC(=O)NCCC(=O)NCCS(=O)(=O)O)CC3)nc(C(F)(F)F)n2)cc1 [Compound 113, (S)-2-(3-(3-(2-(1-(6-(2-((4-cyanophenethyl)carbamoyl)pyrrolidin-1-yl)-2-(trifluromethyl)pyrimidin-4-yl)piperidin-4-yl)ethyl)ureido)-propanamido)-ethanesulfonic acid] | 0.13 ng/mL | 100 to 999 nM
3 | N#Cc1ccc(CCNC(=O)[C@@H]2CCN2c2cc(N3CCC(CCNC(=O)NCCOCCNC(=O)CS(=O)(=O)O)CC3)nc(C(F)(F)F)n2)cc1 [Compound 356, (S)-1-(1-(6-(2-((4-cyanophenethyl)carbamoyl)azetidin-1-yl)-2-(trifluoromethyl)pyrimidin-4-yl)piperidin-4-yl)-4,12-dioxo-8-oxa-3,5,11-triazatridecane-13-sulfonic acid] | 8.4 ng/mL | 100 to 999 nM
4 | COc1cc(C(F)(F)F)ccc1CCNC(=O)[C@@H]1CCN1c1cc(N2CCC(CCC(=O)NCCS(=O)(=O)O)CC2)nc(C(F)(F)F)n1 [Compound 259] | 27 ng/mL | 100 to 999 nM
5 | N#Cc1ccc(CCNC(=O)[C@@H]2CCN2c2cc(N3CCC(CCCC(=O)NCCOCCNC(=N)N)CC3)nc(C(F)(F)F)n2)cc1 [Compound 284, (S)-N-(4-cyanophenethyl)-1-(6-(4-(4-((2-(2-guanidinoethoxy)-ethyl)amino)-4-oxobutyl)piperidin-1-yl)-2-(trifluoromethyl)pyrimidin-4-yl)azetidine-2-carboxamide] | 13 ng/mL | 100 to 999 nM
6 | N#Cc1ccc(CCNC(=O)[C@@H]2CCCN2c2cc(N3CCC(OCC#CCS(=O)(=O)O)CC3)nc(C(F)(F)F)n2)cc1 [Compound 134, (S)-4-((1-(6-(2-((4-cyanophenethyl)carbamoyl)pyrrolidin-1-yl)-2-(trifluoromethyl)pyrimidin-4-yl)piperidin-4-yl)oxy)but-2-yne-1-sulfonic acid] | 22 ng/mL | 100 to 999 nM
7 | N#Cc1ccc(CCNC(=O)[C@@H]2CCCN2c2cc(N3CCC(CCNc4c(NCP(=O)(O)O)c(=O)c4=O)CC3)nc(C(F)(F)F)n2)cc1 [Compound 369, (S)-(((2-((2-(1-(6-(2-((4-cyanophenethyl)carbamoyl)pyrrolidin-1-yl)-2-(trifluoromethyl)pyrimidin-4-yl)piperidin-4-yl)ethyl)amino)-3,4-dioxocyclobut-1-en-1-yl)amino)methyl)phosphonic acid] | 1.7 ng/mL | 100 to 999 nM
8 | N#Cc1ccc(CCNC(=O)[C@@H]2CCCN2c2cc(N3CCC(CCNC(=O)NCCS(=O)(=O)NCC(=O)O)CC3)nc(C(F)(F)F)n2)cc1 [Compound 107] | 0.4 ng/mL | 100 to 999 nM
9 | N#CCCN1CCN(c2cc(N3CCC[C@H]3C(=O)NCCc3ccc(C#N)cc3)nc(C(F)(F)F)n2)CC1 [Compound 32] | 1350 ng/mL | 100 to 999 nM
10 | N#Cc1ccc(CCNC(=O)[C@@H]2CCCN2c2cc(N3CCC(CCNS(=O)(=O)CCNC(=N)N)CC3)nc(C(F)(F)F)n2)cc1 [Compound 130, (S)-N-(4-cyanophenethyl)-1-(6-(4-(2-(2-guanidinoethylsulfonamido)ethyl)piperidin-1-yl)-2-(trifluoromethyl)pyrimidin-4-yl)pyrrolidine-2-carboxamide] | 2.8 ng/mL | < 100 nM
11 | N#Cc1ccc(CCNC(=O)[C@@H]2CCCN2c2cc(N3CCC(CCNC(=N)N)CC3)nc(C(F)(F)F)n2)cc1 [Compound 126, (S)—N-(4-cyanophenethyl)-1-(6-(4-(2-guanidinoethyl)piperidin-1-yl)-2-(trifluoromethyl)pyrimidin-4-yl)pyrrolidine-2-carboxamide] | 2 ng/mL | 100 to 999 nM
12 | N#Cc1ccc(CCNC(=O)[C@@H]2CCCN2c2cc(N3CCC(CCC(=O)NCCS(=O)(=O)O)CC3)nc(C(F)(F)F)n2)cc1 [Compound 56, (S)-2-(3-(1-(6-(2-((4-cyanophenethyl)carbamoyl)pyrrolidin-1-yl)-2-(trifluoromethyl)pyrimidin-4-yl)piperidin-4-yl)propanamido)ethanesulfonic acid] | 14 ng/mL | 100 to 999 nM
13 | O=C(O)CC[C@@H](NC(=O)CCCC1CCN(c2cc(N3CC[C@H]3C(=O)NCCc3ccc(C(F)(F)F)cc3)nc(C(F)(F)F)n2)CC1)C(=O)O [Compound 294, (R)-2-(4-(1-(2-(trifluoromethyl)-6-((S)-2-((4-(trifluoromethyl)-phenethyl)carbamoyl)azetidin-1-yl)pyrimidin-4-yl)piperidin-4-yl)butanamido)pentanedioic acid] | 1.7 ng/mL | < 100 nM

Continued, values first:

Row | Cmax [1] | EC50 (Mouse STC-1 cells) | SMILES
14 | 4.1 ng/mL | < 100 nM | N=C(N)N[C@@H](CCC(=O)NCCCC1CCN(c2cc(N3CCC[C@H]3C(=O)NCCc3ccc(C(F)(F)F)cc3)nc(C(F)(F)F)n2)CC1)C(=O)O [Compound 133, (S)-2-guanidino-5-oxo-5-((3-(1-(2-(trifluoromethyl)-6-((S)-2-((4-(trifluoromethyl)phenethyl)carbamoyl)pyrrolidin-1-yl)pyrimidin-4-yl)piperidin-4-yl)propyl)amino)pentanoic acid]
15 | 143 ng/mL | < 100 nM | N#Cc1ccc(CCNC(=O)[C@@H]2CCCN2c2cc(N3CCC(CCCC(=O)O)CC3)cc(C(F)(F)F)n2)cc1 [Compound 197, (S)-4-(1-(2-(2-((4-cyanophenethyl)carbamoyl)pyrrolidin-1-yl)-6-(trifluoromethyl)pyridin-4-yl)piperidin-4-yl)butanoic acid]
16 | 3.2 ng/mL | < 100 nM | N#Cc1ccc(CCNC(=O)[C@@H]2CCN2c2cc(N3CCC(CCNC(=O)NCCS(N)(=O)=O)CC3)nc(C(F)(F)F)n2)cc1 [Compound 269, (S)—N-(4-cyanophenethyl)-1-(6-(4-(2-(3-(2-sulfamoylethyl)ureido)ethyl)piperidin-1-yl)-2-(trifluoromethyl)pyrimidin-4-yl)azetidine-2-carboxamide]
17 | 4.3 ng/mL | < 100 nM | O=C(CCCC1CCN(c2cc(N3CCC[C@H]3C(=O)NCCc3ccc(C(F)(F)F)cc3)nc(C(F)(F)F)n2)CC1)NCCCS(=O)(=O)O [Compound 60, (S)-3-(4-(1-(2-(trifluoromethyl)-6-(2-((4-(trifluoromethyl)phenethyl)carbamoyl)pyrrolidin-1-yl)pyrimidin-4-yl)piperidin-4-yl)butanamido)propane-1-sulfonic acid]
18 | 171 ng/mL | < 100 nM | N#Cc1ccc(CCNC(=O)[C@@H]2CCCN2c2cc(N3CCC(CCO)CC3)nc(C(F)(F)F)n2)cc1 [Compound 22]
19 | 4.8 ng/mL | < 100 nM | O=C(O)CNS(=O)(=O)CCNC(=O)CCCC1CCN(c2cc(N3CCC[C@H]3C(=O)NCCc3ccc(C(F)(F)F)cc3)nc(C(F)(F)F)n2)CC1 [Compound 114, (S)-2-(2-(4-(1-(2-(trifluoromethyl)-6-(2-((4-(trifluoromethyl)phenethyl)-carbamoyl)-pyrrolidin-1-yl)pyrimidin-4-yl)piperidin-4-yl)butanamido)ethyl-sulfonamido)acetic acid]
20 | 75 ng/mL | < 100 nM | N#Cc1ccc(CCNC(=O)[C@@H]2CCN2c2cc(N3CCC(CO)CC3)nc(C(F)(F)F)n2)cc1 [Compound 219, (S)—N-(4-cyanophenethyl)-1-(6-(4-(hydroxymethyl)piperidin-1-yl)-2-(trifluoromethyl)pyrimidin-4-yl)azetidine-2-carboxamide]
21 | 3.4 ng/mL | < 100 nM | N#Cc1ccc(CCNC(=O)[C@@H]2CCN2c2cc(N3CCC(CCNC(=O)NCCOCCNC(=O)NCCS(=O)(=O)O)CC3)nc(C(F)(F)F)n2)cc1 [Compound 358, (S)-15-(1-(6-(2-((4-cyanophenethyl)carbamoyl)azetidin-1-yl)-2-(trifluoromethyl)pyrimidin-4-yl)piperidin-4-yl)-4,12-dioxo-8-oxa-3,5,11,13-tetraazapentadecane-1-sulfonic acid]
22 | 9.3 ng/mL | < 100 nM | N#Cc1ccc(CCNC(=O)[C@@H]2CCCN2c2cc(N3CCC(CCCC(=O)NCC(=O)O)CC3)nc(C(F)(F)F)n2)cc1 [Compound 103, (S)-2-(4-(1-(6-(2-((4-cyanophenethyl)carbamoyl)pyrrolidin-1-yl)-2-(trifluoromethyl)pyrimidin-4-yl)piperidin-4-yl)butanamido)acetic acid]
